From PMC5991783, “Discovery and Optimization of Indolyl-Containing 4-Hydroxy-2-Pyridone Type II DNA Topoisomerase Inhibitors Active against Multidrug Resistant Gram-negative Bacteria” (Journal of Medicinal Chemistry, 2018)
Converted amounts (≈) assume the structure as drawn. Where a name gives a salt, the structure may show the parent alone.

Key:
E. coli ATCC 25922 = test: MIC, wild-type E. coli ATCC 25922; assay type: cell-based, Escherichia coli; settings: for MIC E. coli^WT: E. coli ATCC 25922; for increase in MIC values against the wild-type E. coli strain compared to the permeable strain: E. coli^WT vs E. coli^P; for MIC: Escherichia coli, ATCC25922, read-out: MIC E. coli^WT, E. coli ATCC 25922
A. baumannii MMX2240 = test: MIC, fluoroquinolone resistant A. baumannii; assay type: cell-based, Acinetobacter baumannii
[1] = test system: Acinetobacter baumannii ATCC BAA-747; test: MIC, wild-type A. baumannii; assay type: cell-based; settings: A. baumannii ATCC BAA-747
[2] = test system: Klebsiella pneumoniae ATCC 35657; test: MIC, wild-type K. pneumoniae; assay type: cell-based; settings: K. pneumoniae ATCC 35657
E. coli SKM18 = test: microbe, parasite or virus in culture; assay type: cell-based, Escherichia coli; settings: for MIC E. coli^R1: E. coli SKM18
E. coli^WT (ATCC 25922) [3] = test system: E. coli^WT (ATCC 25922); set-up: method as in PMID 29032026; settings: cited from earlier work
[4] = test system: panel of 12 E. coli isolates; set-up: method as in PMID 29032026; settings: abbreviated panel of E. coli strains; cited from earlier work
A. baumannii^WT = test: Time-kill kinetics, A. baumannii
E. coli^WT = test: Time-kill kinetics, E. coli
E. coli DNA gyrase = E. coli DNA gyrase (Escherichia coli, UniProt P0AES4+P0AES6); test: biochemical
human topoisomerase II = human topoisomerase II (Homo sapiens, UniProt P11388); test: Human topoisomerase II decatenation assay; assay type: biochemical; settings: Supplemental Table 1; read-out: Human Topo II IC50
[5] = Pharmacokinetics in CD-1 mice; settings: CD-1, mouse, plasma, iv, 10 mg/kg
E. coli^WT (ATCC 25922) [6] = test: Mouse septicemia model; assay type: in vivo, CD-1 mice; settings: Mus musculus, iv, 96 h, read-out: survival
[7] = test system: panel of 12 A. baumannii isolates; test: Susceptibility testing, 12 A. baumannii isolates; assay type: cell-based, Acinetobacter baumannii
[8] = test system: panel of 12 E. coli isolates; test: Susceptibility testing, 12 E. coli isolates; assay type: cell-based, Escherichia coli
[9] = E. coli enzymatic activity, DNA gyrase IC50

Chain of human topoisomerase II (P11388 whole entry): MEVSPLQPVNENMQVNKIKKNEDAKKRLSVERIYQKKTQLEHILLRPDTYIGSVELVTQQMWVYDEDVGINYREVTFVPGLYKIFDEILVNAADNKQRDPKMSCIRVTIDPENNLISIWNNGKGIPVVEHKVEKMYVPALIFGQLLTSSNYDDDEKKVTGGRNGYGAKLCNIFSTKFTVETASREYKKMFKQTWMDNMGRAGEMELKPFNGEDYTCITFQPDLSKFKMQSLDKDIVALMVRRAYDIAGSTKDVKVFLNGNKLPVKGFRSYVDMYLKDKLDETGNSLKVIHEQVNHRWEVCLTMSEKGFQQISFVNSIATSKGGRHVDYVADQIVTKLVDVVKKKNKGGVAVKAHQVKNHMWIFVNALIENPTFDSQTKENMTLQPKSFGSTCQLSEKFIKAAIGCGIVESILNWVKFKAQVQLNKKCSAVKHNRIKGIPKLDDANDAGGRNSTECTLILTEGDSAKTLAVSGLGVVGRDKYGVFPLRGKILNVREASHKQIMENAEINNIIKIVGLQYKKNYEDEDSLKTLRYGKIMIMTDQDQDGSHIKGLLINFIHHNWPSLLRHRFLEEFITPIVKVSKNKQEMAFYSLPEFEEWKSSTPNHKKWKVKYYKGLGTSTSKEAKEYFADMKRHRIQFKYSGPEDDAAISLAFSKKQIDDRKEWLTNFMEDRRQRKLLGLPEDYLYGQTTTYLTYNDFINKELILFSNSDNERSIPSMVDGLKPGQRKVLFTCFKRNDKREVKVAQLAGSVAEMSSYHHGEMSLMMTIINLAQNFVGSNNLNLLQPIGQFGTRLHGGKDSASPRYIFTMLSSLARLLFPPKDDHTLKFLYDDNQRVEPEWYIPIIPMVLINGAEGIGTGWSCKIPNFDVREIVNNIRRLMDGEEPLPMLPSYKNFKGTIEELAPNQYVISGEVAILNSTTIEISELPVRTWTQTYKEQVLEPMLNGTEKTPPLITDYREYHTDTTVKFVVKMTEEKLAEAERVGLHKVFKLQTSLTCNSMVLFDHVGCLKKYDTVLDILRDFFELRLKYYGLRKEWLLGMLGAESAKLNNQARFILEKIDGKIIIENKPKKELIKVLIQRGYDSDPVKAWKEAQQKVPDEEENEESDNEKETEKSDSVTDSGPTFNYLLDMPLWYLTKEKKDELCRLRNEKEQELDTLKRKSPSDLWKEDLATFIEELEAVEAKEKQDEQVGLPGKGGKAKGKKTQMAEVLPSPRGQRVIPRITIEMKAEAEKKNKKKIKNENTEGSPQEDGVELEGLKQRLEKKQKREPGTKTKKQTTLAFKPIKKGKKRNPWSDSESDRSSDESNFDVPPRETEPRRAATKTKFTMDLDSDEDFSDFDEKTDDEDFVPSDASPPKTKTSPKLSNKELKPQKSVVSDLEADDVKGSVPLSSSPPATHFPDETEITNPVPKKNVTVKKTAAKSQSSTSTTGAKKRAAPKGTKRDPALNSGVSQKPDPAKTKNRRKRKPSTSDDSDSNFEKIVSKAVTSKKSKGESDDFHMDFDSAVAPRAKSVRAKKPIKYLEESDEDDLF
Chain of E. coli DNA gyrase (P0AES4 whole entry, one chain of several): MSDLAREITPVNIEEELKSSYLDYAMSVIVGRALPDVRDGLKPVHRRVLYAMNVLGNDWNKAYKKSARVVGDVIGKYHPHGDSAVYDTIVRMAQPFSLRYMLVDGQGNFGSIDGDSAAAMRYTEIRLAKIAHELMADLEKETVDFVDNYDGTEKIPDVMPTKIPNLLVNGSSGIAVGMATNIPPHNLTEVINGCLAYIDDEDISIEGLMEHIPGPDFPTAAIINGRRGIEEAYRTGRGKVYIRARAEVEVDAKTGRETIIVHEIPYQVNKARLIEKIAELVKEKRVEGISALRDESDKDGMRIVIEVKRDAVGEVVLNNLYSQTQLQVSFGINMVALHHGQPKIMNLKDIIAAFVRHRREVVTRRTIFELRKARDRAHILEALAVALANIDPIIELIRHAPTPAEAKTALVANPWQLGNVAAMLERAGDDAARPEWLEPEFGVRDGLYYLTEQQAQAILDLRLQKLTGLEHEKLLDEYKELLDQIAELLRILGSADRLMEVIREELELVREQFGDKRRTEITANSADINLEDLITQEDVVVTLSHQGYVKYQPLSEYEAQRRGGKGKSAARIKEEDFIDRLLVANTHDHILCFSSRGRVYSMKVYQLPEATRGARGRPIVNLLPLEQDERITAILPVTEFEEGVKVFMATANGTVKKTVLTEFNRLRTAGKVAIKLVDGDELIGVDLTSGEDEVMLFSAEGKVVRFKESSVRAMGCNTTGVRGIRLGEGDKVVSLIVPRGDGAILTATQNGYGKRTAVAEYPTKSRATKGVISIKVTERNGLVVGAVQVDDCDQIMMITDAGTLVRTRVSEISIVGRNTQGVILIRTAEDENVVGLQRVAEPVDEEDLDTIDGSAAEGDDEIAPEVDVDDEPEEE

10-((sec-Butylamino)methyl)-4-hydroxy-9-methyl-2-oxo-1,2,5,6,7,9-hexahydropyrido[3′,2′:6,7]cyclohepta[1,2-f]indole-3-carboxylic Acid Hydrochloride [Compound 6n]
MIC E. coli^WT (E. coli ATCC 25922): 0.78 µg/mL | MIC A. bau^R (A. baumannii MMX2240): 0.50 µg/mL | MIC A. bau^WT [1]: 0.78 µg/mL | MIC K. pneu^WT [2]: 0.50 µg/mL | MIC E. coli^R1 (E. coli SKM18): 0.78 µg/mL

CCc1c(-c2ccc(N3C[C@@H]4[C@@H](N)[C@@H]4C3)cc2)[nH]c(=O)c(C(=O)O)c1O [Compound 1b]
efficacy in a murine septicemia model (E. coli^WT (ATCC 25922) [3]): demonstrated efficacy | MIC90 E. coli [4]: 8 µg/mL (≈ 22.5 µM)

CCc1c(-c2ccc3c(ccn3C)c2)[nH]c(=O)c(C(=O)O)c1O [Compound 2a, 5-Ethyl-4-hydroxy-6-(1-methyl-1H-indol-5-yl)-2-oxo-1,2-dihydropyridine-3-carboxylic Acid]
increase in MIC values against the wild-type E. coli strain compared to the permeable strain (E. coli ATCC 25922): greater than 25 fold

CCc1c(-c2ccc3c(c2)cc(C)n3C)[nH]c(=O)c(C(=O)O)c1O [Compound 2b, 6-(1,2-Dimethyl-1H-indol-5-yl)-5-ethyl-4-hydroxy-2-oxo-1,2-dihydropyridine-3-carboxylic Acid]
increase in MIC values against the wild-type E. coli strain compared to the permeable strain (E. coli ATCC 25922): greater than 25 fold

CCc1c(-c2ccc3c(c2)cc(CN2CCC2)n3C)[nH]c(=O)c(C(=O)O)c1O [Compound 2m, 6-(2-(Azetidin-1-ylmethyl)-1-methyl-1H-indol-5-yl)-5-ethyl-4-hydroxy-2-oxo-1,2-dihydropyridine-3-carboxylic Acid Hydrochloride]
mode of bacterial inhibition (time–kill kinetics) (A. baumannii^WT; A. baumannii^WT, several concentrations): concentration-dependent bactericidal activity | reduction in the number of CFUs (A. baumannii^WT; above 2-fold of the MIC, within ∼2 h): ~2 log10 units | mode of bacterial inhibition (time–kill kinetics) (E. coli^WT; E. coli^WT, several concentrations): concentration-dependent bactericidal activity | reduction in the number of CFUs (E. coli^WT; concentrations above the MIC, within ∼2 h): more than 3 log10 units

CNCc1cc2cc3c(cc2n1C)CCc1c-3[nH]c(=O)c(C(=O)O)c1O.Cl [Compound 5a]
MIC (E. coli ATCC 25922): 7.8 µg/mL | IC50 (E. coli DNA gyrase; [9]): 900 nM | MIC (E. coli SKM18; Escherichia coli, SKM18, read-out: MIC E. coli^R1, E. coli SKM18): 7.8 µg/mL

CCNCc1cc2cc3c(cc2n1C)CCCc1c-3[nH]c(=O)c(C(=O)O)c1O [Compound 6a, 10-((Ethylamino)methyl)-4-hydroxy-9-methyl-2-oxo-1,2,5,6,7,9-hexahydropyrido[3′,2′:6,7]cyclohepta[1,2-f]indole-3-carboxylic Acid Hydrochloride]
IC50 (human topoisomerase II): > 100000 nM | IC50 (E. coli DNA gyrase; E. coli DNA gyrase IC50, gyrase^WT): 560 nM | IC50 (E. coli DNA gyrase; [9]): 100 nM

CCNCc1cc2cc3c(cc2n1C)NCCc1c-3[nH]c(=O)c(C(=O)O)c1O [Compound 6g]
MIC (E. coli ATCC 25922): 7.8 to 31.3 µg/mL (≈ 20.4 to 81.8 µM)

CC(C)NCc1cc2cc3c(cc2n1C)CCCc1c-3[nH]c(=O)c(C(=O)O)c1O [Compound 6i, 4-Hydroxy-10-((isopropylamino)methyl)-9-methyl-2-oxo-1,2,5,6,7,9-hexahydropyrido[3′,2′:6,7]cyclohepta[1,2-f]indole-3-carboxylic Acid Hydrochloride]
AUC(0-t) at 24 h ([5]; pH 8): 1810 ng·h/mL | clearance ([5]; pH 8): 64 mL/min/kg | IC50 (human topoisomerase II): > 100000 nM | IC50 (E. coli DNA gyrase; E. coli DNA gyrase IC50): 2700 nM

CC(C)NCc1cc2cc3c(cc2n1C)NCCc1c-3[nH]c(=O)c(C(=O)O)c1O [Compound 6l]
MIC (E. coli ATCC 25922): 7.8 to 31.3 µg/mL (≈ 19.7 to 79 µM)

Cn1c(CNC2(C)CCC2)cc2cc3c(cc21)CCCc1c-3[nH]c(=O)c(C(=O)O)c1O [Compound 6p, 4-Hydroxy-9-methyl-10-(((1-methylcyclobutyl)amino)methyl)-2-oxo-1,2,5,6,7,9-hexahydropyrido[3′,2′:6,7]cyclohepta[1,2-f]indole-3-carboxylic Acid Hydrochloride]
AUC(0-t) at 24 h ([5]; pH 4): 4580 ng·h/mL | clearance ([5]; pH 4): 35 mL/min/kg | responders at 20 mg/kg (E. coli^WT (ATCC 25922) [6]): 0%

Cn1c(CNC2(C)CCC2)cc2cc3c(cc21)OCCc1c-3[nH]c(=O)c(C(=O)O)c1O [Compound 6q, 4-Hydroxy-9-methyl-10-(((1-methylcyclobutyl)amino)methyl)-2-oxo-2,5,6,9-tetrahydro-1H-pyrido[2′,3′:4,5]oxepino[3,2-f]indole-3-carboxylic Acid Hydrochloride]
AUC(0-t) at 24 h ([5]; pH 8): 4420 ng·h/mL | clearance ([5]; pH 8): 37 mL/min/kg | IC50 (human topoisomerase II): > 100000 nM | IC50 (E. coli DNA gyrase; E. coli DNA gyrase IC50): 730 nM | MIC ([7]; Acinetobacter baumannii, read-out: A. baumannii MIC range): 0.06 to 16 µg/mL

CN(C)Cc1cc2cc3c(cc2n1C)CCCc1c-3[nH]c(=O)c(C(=O)O)c1O [Compound 6r, 10-((Dimethylamino)methyl)-4-hydroxy-9-methyl-2-oxo-1,2,5,6,7,9-hexahydropyrido[3′,2′:6,7]cyclohepta[1,2-f]indole-3-carboxylic Acid Hydrochloride]
AUC(0-t) at 24 h ([5]; pH 8): 3520 ng·h/mL | clearance ([5]; pH 8): 47 mL/min/kg | responders at 20 mg/kg (E. coli^WT (ATCC 25922) [6]): 100% | IC50 (human topoisomerase II): > 100000 nM | IC50 (E. coli DNA gyrase; E. coli DNA gyrase IC50): 410 nM

CN(C)Cc1cc2cc3c(cc2n1C)OCCc1c-3[nH]c(=O)c(C(=O)O)c1O [Compound 6s, 10-((Dimethylamino)methyl)-4-hydroxy-9-methyl-2-oxo-2,5,6,9-tetrahydro-1H-pyrido[2′,3′:4,5]oxepino[3,2-f]indole-3-carboxylic Acid Hydrochloride]
AUC(0-t) at 24 h ([5]; pH 4): 2930 ng·h/mL | clearance ([5]; pH 4): 53 mL/min/kg | responders at 20 mg/kg (E. coli^WT (ATCC 25922) [6]): 100% | IC50 (human topoisomerase II): > 100000 nM | IC50 (E. coli DNA gyrase; E. coli DNA gyrase IC50): 490 nM

Cn1c(CN2CCCC2)cc2cc3c(cc21)CCCc1c-3[nH]c(=O)c(C(=O)O)c1O [Compound 6v, 4-Hydroxy-9-methyl-2-oxo-10-(pyrrolidin-1-ylmethyl)-1,2,5,6,7,9-hexahydropyrido[3′,2′:6,7]cyclohepta[1,2-f]indole-3-carboxylic Acid Hydrochloride]
AUC(0-t) at 24 h ([5]; pH 8): 4050 ng·h/mL | clearance ([5]; pH 8): 41 mL/min/kg | responders at 20 mg/kg (E. coli^WT (ATCC 25922) [6]): 100% | IC50 (human topoisomerase II): > 100000 nM | IC50 (E. coli DNA gyrase; E. coli DNA gyrase IC50): 210 nM | MIC90 ([7]; Acinetobacter baumannii, read-out: A. baumannii MIC90, 12 strains, Mueller Hinton II broth): 8 to 16 µg/mL | E. coli MIC90 ([8]; 12 strains, Mueller Hinton II broth): 1 µg/mL | MIC90 ([8]; Escherichia coli, read-out: E. coli MIC90, 12 strains, Mueller Hinton II broth): 0.5 to 1 µg/mL

Cn1c(CN2CCCC2)cc2cc3c(cc21)OCCc1c-3[nH]c(=O)c(C(=O)O)c1O [Compound 6w, 4-Hydroxy-9-methyl-2-oxo-10-(pyrrolidin-1-ylmethyl)-2,5,6,9-tetrahydro-1H-pyrido[2′,3′:4,5]oxepino[3,2-f]indole-3-carboxylic Acid Hydrochloride]
IC50 (human topoisomerase II): > 100000 nM | IC50 (E. coli DNA gyrase; E. coli DNA gyrase IC50): 280 nM

CO/N=C(\C(=O)N[C@@H]1C(=O)N2C(C(=O)[O-])=C(C[N+]3(C)CCCC3)CS[C@H]12)c1csc(N)n1 [cefepime, reference compound]
MIC E. coli^WT (E. coli ATCC 25922): 0.05 µg/mL (≈ 0.104 µM) | MIC A. bau^R (A. baumannii MMX2240): 0.78 µg/mL (≈ 1.62 µM) | MIC A. bau^WT [1]: 0.78 µg/mL (≈ 1.62 µM) | MIC K. pneu^WT [2]: 0.02 µg/mL (≈ 0.0416 µM) | MIC E. coli^R1 (E. coli SKM18): 0.05 µg/mL (≈ 0.104 µM)

C[C@H]1COc2c(N3CCN(C)CC3)c(F)cc3c(=O)c(C(=O)O)cn1c23.C[C@H]1COc2c(N3CCN(C)CC3)c(F)cc3c(=O)c(C(=O)O)cn1c23.O [levofloxacin, reference compound]
A. baumannii MIC range ([7]; 12 strains): 0.06 to 64 µg/mL | E. coli MIC range ([8]; 12 strains): 0.015 to 32 µg/mL

CN(C)c1cc(NC(=O)CNC(C)(C)C)c(O)c2c1C[C@H]1C[C@H]3[C@H](N(C)C)C(O)=C(C(N)=O)C(=O)[C@@]3(O)C(O)=C1C2=O [tigecycline, reference compound]
MIC E. coli^WT (E. coli ATCC 25922): 0.13 µg/mL (≈ 0.222 µM) | MIC A. bau^R (A. baumannii MMX2240): 0.78 µg/mL (≈ 1.33 µM) | MIC A. bau^WT [1]: 0.78 µg/mL (≈ 1.33 µM) | MIC K. pneu^WT [2]: 0.13 µg/mL (≈ 0.222 µM) | MIC E. coli^R1 (E. coli SKM18): 0.25 µg/mL (≈ 0.427 µM)
